Laboratory results as given in PMC10249031 (ACS Omega, 2023).

The molecules below were run on A431 cells (assay: not given). Conditions: 10 μM, 72 h, MTT.

SMILES	Cell viability of A431
Cc1ccc(S(=O)(=O)c2c3c4cc(C)ccc4n(C)c(-c4ccccc4)c-3c3ccccc23)cc1 [SIQ19]	more susceptible
Cn1c(-c2ccccc2)c2c3ccccc3c(S(=O)(=O)c3ccc(Cl)cc3)c-2c2ccccc21 [SIQ5]	more susceptible
COc1ccc(S(=O)(=O)c2c3c4ccccc4n(C)c(-c4ccccc4)c-3c3ccccc23)cc1 [SIQ3]	more susceptible
Cc1ccc(S(=O)(=O)c2c3c4ccccc4n(C)c(-c4ccc(Cl)cc4)c-3c3ccccc23)cc1 [SIQ12]	more susceptible

What follows are molecules tested on A431 cells (assay: cells). Conditions: Homo sapiens, A-431, 72 h, read-out: IC50 A431.

SMILES	IC50 [µM]
Cc1ccc(S(=O)(=O)c2c3c4cc(C)ccc4n(C)c(-c4ccccc4)c-3c3ccccc23)cc1 [SIQ19]	11.9 ± 0.41
Cn1c(-c2ccccc2)c2c3ccccc3c(S(=O)(=O)c3ccc(Cl)cc3)c-2c2ccccc21 [SIQ5]	9.93 ± 0.45
Cc1ccc(S(=O)(=O)c2c3c4ccccc4n(C)c(-c4ccccc4)c-3c3ccccc23)c(C)c1 [SIQ8]	14.1 ± 0.73
Cc1ccc(S(=O)(=O)c2c3c4ccccc4n(C)c(-c4ccc(C)cc4C)c-3c3ccccc23)cc1 [SIQ17]	19.2 ± 0.97
COc1ccc(S(=O)(=O)c2c3c4ccccc4n(C)c(-c4ccccc4)c-3c3ccccc23)cc1 [SIQ3]	17.7 ± 0.35
Cc1ccc(S(=O)(=O)c2c3c4ccccc4n(C)c(-c4ccc(Cl)cc4)c-3c3ccccc23)cc1 [SIQ12]	13.1 ± 0.5

Each molecule was assayed on Vero cells (assay: MTT cytotoxicity assay, Vero normal cell line). Conditions: Primates, 72 h, read-out: IC50 Vero.
Format: cell-based, monkey

SMILES	IC50 [µM]
Cc1ccc(S(=O)(=O)c2c3c4cc(C)ccc4n(C)c(-c4ccccc4)c-3c3ccccc23)cc1 [SIQ19]	5.88 ± 0.33
Cn1c(-c2ccccc2)c2c3ccccc3c(S(=O)(=O)c3ccc(Cl)cc3)c-2c2ccccc21 [SIQ5]	8.06 ± 0.15
Cc1ccc(S(=O)(=O)c2c3c4ccccc4n(C)c(-c4ccccc4)c-3c3ccccc23)c(C)c1 [SIQ8]	21.7 ± 0.5
Cc1ccc(S(=O)(=O)c2c3c4ccccc4n(C)c(-c4ccc(C)cc4C)c-3c3ccccc23)cc1 [SIQ17]	> 100
C#Cc1cccc(Nc2ncnc3cc(OCCOC)c(OCCOC)cc23)c1 [erlotinib, reference compound]	35 ± 1.35
COc1ccc(S(=O)(=O)c2c3c4ccccc4n(C)c(-c4ccccc4)c-3c3ccccc23)cc1 [SIQ3]	> 100
Cc1ccc(S(=O)(=O)c2c3c4ccccc4n(C)c(-c4ccc(Cl)cc4)c-3c3ccccc23)cc1 [SIQ12]	7.25 ± 0.12

The molecules below were run against EGFR-TK (Homo sapiens, UniProt P00533) (assay: ADP-Glo Kinase Assay, EGFR tyrosine kinase inhibition). Conditions: not given.
Chain of EGFR-TK (P00533 25-1210): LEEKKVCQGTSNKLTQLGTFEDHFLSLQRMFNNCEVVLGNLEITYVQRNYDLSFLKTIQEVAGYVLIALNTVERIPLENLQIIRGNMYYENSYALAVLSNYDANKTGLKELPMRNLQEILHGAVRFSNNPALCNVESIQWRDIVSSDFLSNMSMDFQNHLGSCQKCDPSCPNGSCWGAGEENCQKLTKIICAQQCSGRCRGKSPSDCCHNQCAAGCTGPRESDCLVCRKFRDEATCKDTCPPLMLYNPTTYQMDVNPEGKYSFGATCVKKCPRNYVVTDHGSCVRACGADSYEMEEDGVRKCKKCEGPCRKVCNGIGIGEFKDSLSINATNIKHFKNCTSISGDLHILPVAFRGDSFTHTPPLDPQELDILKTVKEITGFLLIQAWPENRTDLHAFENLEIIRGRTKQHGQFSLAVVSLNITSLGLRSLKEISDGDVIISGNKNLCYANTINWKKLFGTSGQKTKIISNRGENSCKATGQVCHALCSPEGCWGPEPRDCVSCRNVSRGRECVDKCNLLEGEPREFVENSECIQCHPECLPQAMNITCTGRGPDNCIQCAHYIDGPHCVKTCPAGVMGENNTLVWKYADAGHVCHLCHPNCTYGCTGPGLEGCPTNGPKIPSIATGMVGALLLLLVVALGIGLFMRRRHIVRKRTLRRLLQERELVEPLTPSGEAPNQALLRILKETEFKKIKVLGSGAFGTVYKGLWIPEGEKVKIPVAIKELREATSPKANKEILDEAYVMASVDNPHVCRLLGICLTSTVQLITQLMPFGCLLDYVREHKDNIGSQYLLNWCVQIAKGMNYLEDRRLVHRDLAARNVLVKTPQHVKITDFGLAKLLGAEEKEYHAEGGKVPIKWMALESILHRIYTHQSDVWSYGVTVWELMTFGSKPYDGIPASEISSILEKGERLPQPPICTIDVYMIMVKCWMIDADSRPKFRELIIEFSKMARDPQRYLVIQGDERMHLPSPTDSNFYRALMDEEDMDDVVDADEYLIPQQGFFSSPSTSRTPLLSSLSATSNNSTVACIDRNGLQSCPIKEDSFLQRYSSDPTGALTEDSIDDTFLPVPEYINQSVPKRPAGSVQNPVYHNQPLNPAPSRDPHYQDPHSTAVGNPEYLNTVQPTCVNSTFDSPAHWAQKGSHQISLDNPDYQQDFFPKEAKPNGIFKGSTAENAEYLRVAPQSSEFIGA
Format: biochemical

SMILES	IC50 [µM]
COc1ccc(-c2c3c4ccccc4c(S(=O)(=O)c4ccc(C)cc4)c-3c3ccccc3n2C)cc1 [SIQ11]	0.0232 ± 0.00876
Cc1ccc(-c2c3c4ccccc4c(S(=O)(=O)c4ccc(C)cc4)c-3c3ccccc3n2C)cc1 [SIQ10]	0.0214 ± 0.00574

Same assay, conditions: at 1 μM, compared to erlotinib, n = 2

SMILES	EGFR-TK inhibitory activity (screening)
Cc1ccc(S(=O)(=O)c2c3c4cc(C)ccc4n(C)c(-c4ccccc4)c-3c3ccccc23)cc1 [SIQ19]	higher EGFR-TK inhibitory activity than erlotinib
COc1ccc(-c2c3c4ccccc4c(S(=O)(=O)c4ccc(C)cc4)c-3c3ccccc3n2C)cc1 [SIQ11]	higher EGFR-TK inhibitory activity than erlotinib
Cn1c(-c2ccccc2)c2c3ccccc3c(S(=O)(=O)c3ccc(Cl)cc3)c-2c2ccccc21 [SIQ5]	higher EGFR-TK inhibitory activity than erlotinib
Cc1ccc(S(=O)(=O)c2c3c4ccccc4n(C)c(-c4ccccc4)c-3c3ccccc23)c(C)c1 [SIQ8]	higher EGFR-TK inhibitory activity than erlotinib
Cc1ccc(-c2c3c4ccccc4c(S(=O)(=O)c4ccc(C)cc4)c-3c3ccccc3n2C)cc1 [SIQ10]	higher EGFR-TK inhibitory activity than erlotinib
Cc1ccc(S(=O)(=O)c2c3c4ccccc4n(C)c(-c4ccc(C)cc4C)c-3c3ccccc23)cc1 [SIQ17]	higher EGFR-TK inhibitory activity than erlotinib
COc1ccc(S(=O)(=O)c2c3c4ccccc4n(C)c(-c4ccccc4)c-3c3ccccc23)cc1 [SIQ3]	higher EGFR-TK inhibitory activity than erlotinib
Cc1ccc(S(=O)(=O)c2c3c4ccccc4n(C)c(-c4ccc(Cl)cc4)c-3c3ccccc23)cc1 [SIQ12]	higher EGFR-TK inhibitory activity than erlotinib

These molecules were tested on A549 cells (assay: MTT cytotoxicity assay, A549). Conditions: 10 μM, 72 h, MTT.
Format: cell-based, human

SMILES	Cell viability of A549
Cn1c(-c2ccccc2)c2c3ccccc3c(S(=O)(=O)c3ccc(Cl)cc3)c-2c2ccccc21 [SIQ5]	more vulnerable
Cc1ccc(S(=O)(=O)c2c3c4ccccc4n(C)c(-c4ccccc4)c-3c3ccccc23)c(C)c1 [SIQ8]	more vulnerable
Cc1ccc(S(=O)(=O)c2c3c4ccccc4n(C)c(-c4ccc(C)cc4C)c-3c3ccccc23)cc1 [SIQ17]	more vulnerable
COc1ccc(S(=O)(=O)c2c3c4ccccc4n(C)c(-c4ccccc4)c-3c3ccccc23)cc1 [SIQ3]	more vulnerable
Cc1ccc(S(=O)(=O)c2c3c4ccccc4n(C)c(-c4ccc(Cl)cc4)c-3c3ccccc23)cc1 [SIQ12]	more vulnerable

Same assay, conditions: Homo sapiens, A549, 72 h, read-out: IC50 A549

SMILES	IC50 [µM]
Cc1ccc(S(=O)(=O)c2c3c4cc(C)ccc4n(C)c(-c4ccccc4)c-3c3ccccc23)cc1 [SIQ19]	29.3 ± 0.44
Cn1c(-c2ccccc2)c2c3ccccc3c(S(=O)(=O)c3ccc(Cl)cc3)c-2c2ccccc21 [SIQ5]	16.8 ± 0.41
Cc1ccc(S(=O)(=O)c2c3c4ccccc4n(C)c(-c4ccccc4)c-3c3ccccc23)c(C)c1 [SIQ8]	27.2 ± 0.71
Cc1ccc(S(=O)(=O)c2c3c4ccccc4n(C)c(-c4ccc(C)cc4C)c-3c3ccccc23)cc1 [SIQ17]	33 ± 0.59
COc1ccc(S(=O)(=O)c2c3c4ccccc4n(C)c(-c4ccccc4)c-3c3ccccc23)cc1 [SIQ3]	33.5 ± 0.47
Cc1ccc(S(=O)(=O)c2c3c4ccccc4n(C)c(-c4ccc(Cl)cc4)c-3c3ccccc23)cc1 [SIQ12]	23.2 ± 0.42

Same assay, conditions: Homo sapiens, A549, 72 h, read-out: IC50 A549, MTT, 72 h

SMILES	IC50 [µM]
C#Cc1cccc(Nc2ncnc3cc(OCCOC)c(OCCOC)cc23)c1 [erlotinib, reference compound]	33.3

Same assay, conditions: read-out: IC50 A549; MTT, 72 h

SMILES	IC50 [µM]
C#Cc1cccc(Nc2ncnc3cc(OCCOC)c(OCCOC)cc23)c1 [erlotinib, reference compound]	33.3 ± 1.88
